From patent US11964938B2, “3-phenyl-4-hexynoic acid derivatives as GPR40 agonists” (CELON PHARMA S.A., priority 2018, dated 2024) come the findings set out here.

The target in one data set is T1, MRP3 (Homo sapiens, UniProt O15438).
T1 construct: host or cells: HEK293 (membrane vesicles)
Put plainly: Vesicular transport inhibition assay, MRP3. To be noted: membrane vesicles from HEK293 cells. The data set is classed as biochemical. Here is the method:
(§1) Experiment B4: Bile Acid Transporters Inhibition in the Liver. […] The compound was tested on a panel of 10 transporters: BSEP, MRP2, MRP3, MRP4 in a vesicular transport inhibition assay and NTCP, OAT1, OAT2v1, OATP1A2, OATP1B1, OATP1B3 in an uptake transporter inhibition assays. Vesicular transport inhibition assay was performed on membrane vesicles isolated from mammal HEK293 cells overexpressing human ABC transporters. Tested compound were incubated with vesicles and substrates for respective tested transporters. Incubation was performed in the presence of 4 mM ATP or AMP in order to differentiate between uptake by a transporter and passive diffusion into vesicles. In the case of MRP2 and MRP3, reactions were performed in the presence of 2 mM glutathione. Tested compounds were added to the reaction mixture dissolved in 0.75 μl of a solvent (1% of final incubation volume). Reaction mixtures were preincubated for 15 minutes at 37±1° C. Reactions were started by the addition of 25 μl of 12 mM MgATP (or 12 mM AMP) in test buffer, as a background control, separately preincubated.

Another data set deals with T2, BSEP (Homo sapiens, UniProt O95342).
T2 construct: host or cells: HEK293 (membrane vesicles)
T2 sequence (O95342 whole entry): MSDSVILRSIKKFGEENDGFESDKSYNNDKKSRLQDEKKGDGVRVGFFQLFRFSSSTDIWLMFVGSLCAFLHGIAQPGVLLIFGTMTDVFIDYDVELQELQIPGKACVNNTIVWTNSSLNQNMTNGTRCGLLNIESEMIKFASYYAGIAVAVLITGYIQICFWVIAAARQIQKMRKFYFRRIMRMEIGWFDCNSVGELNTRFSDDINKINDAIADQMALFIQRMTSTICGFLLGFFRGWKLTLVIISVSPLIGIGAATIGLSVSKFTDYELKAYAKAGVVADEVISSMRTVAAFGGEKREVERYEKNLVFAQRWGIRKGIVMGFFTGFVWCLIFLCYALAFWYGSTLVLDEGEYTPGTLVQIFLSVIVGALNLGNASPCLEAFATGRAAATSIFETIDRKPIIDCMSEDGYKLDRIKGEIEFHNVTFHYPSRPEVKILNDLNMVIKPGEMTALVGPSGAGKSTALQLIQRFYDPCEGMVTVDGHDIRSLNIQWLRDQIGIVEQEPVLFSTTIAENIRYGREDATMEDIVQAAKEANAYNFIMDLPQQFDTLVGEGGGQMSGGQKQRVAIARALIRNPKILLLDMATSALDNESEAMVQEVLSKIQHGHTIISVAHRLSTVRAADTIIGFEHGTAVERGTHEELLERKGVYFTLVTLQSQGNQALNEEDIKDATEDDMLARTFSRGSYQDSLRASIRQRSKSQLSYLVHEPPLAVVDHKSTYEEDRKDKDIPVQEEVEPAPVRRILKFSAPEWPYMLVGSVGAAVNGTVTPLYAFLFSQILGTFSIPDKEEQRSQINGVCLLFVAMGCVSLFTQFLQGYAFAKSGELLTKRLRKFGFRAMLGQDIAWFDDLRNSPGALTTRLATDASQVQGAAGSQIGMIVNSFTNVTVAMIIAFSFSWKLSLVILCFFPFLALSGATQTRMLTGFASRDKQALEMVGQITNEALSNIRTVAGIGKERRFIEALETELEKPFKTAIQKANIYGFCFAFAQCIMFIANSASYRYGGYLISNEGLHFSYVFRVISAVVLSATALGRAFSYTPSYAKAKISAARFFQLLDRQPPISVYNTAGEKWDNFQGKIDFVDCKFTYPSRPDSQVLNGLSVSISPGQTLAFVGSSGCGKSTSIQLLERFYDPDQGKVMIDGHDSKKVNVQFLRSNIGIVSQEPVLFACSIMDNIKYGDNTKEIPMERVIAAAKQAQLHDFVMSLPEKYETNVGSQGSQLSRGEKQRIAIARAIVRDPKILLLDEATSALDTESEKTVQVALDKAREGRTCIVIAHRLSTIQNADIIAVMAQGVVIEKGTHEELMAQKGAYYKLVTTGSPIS
Put plainly: Vesicular transport inhibition assay, BSEP. The format is biochemical. To be noted: membrane vesicles from HEK293 cells. The method, then:
as §1

The target in the next data set is T3, OATP1B1 (Homo sapiens, UniProt Q9Y6L6).
T3 construct: host or cells: HEK293
T3 sequence (Q9Y6L6 1-691): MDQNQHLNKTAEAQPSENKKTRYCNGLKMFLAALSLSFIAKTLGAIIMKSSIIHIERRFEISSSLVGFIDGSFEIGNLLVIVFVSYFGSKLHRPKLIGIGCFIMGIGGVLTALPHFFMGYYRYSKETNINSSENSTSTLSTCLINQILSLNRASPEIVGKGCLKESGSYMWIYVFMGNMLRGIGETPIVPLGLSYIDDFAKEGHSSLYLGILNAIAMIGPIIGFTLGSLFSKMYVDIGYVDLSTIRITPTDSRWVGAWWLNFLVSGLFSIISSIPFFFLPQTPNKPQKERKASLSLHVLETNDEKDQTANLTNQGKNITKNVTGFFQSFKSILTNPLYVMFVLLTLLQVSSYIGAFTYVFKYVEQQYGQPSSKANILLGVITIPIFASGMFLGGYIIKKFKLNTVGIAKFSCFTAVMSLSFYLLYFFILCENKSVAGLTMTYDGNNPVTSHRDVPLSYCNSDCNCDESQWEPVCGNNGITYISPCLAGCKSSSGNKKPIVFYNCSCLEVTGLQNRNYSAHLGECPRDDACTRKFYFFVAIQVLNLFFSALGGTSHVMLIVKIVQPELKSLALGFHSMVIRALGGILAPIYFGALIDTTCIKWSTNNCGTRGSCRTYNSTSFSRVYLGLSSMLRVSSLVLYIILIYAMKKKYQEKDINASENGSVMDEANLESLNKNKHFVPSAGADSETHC
Put plainly: Uptake transporter inhibition assay, OATP1B1. The format is cell-based. Conditions: HEK293 cells overexpressing transporter. The method, then: (§2) Experiment B4: Bile Acid Transporters Inhibition in the Liver.
(§3) The compound was tested on a panel of 10 transporters: BSEP, MRP2, MRP3, MRP4 in a vesicular transport inhibition assay and NTCP, OAT1, OAT2v1, OATP1A2, OATP1B1, OATP1B3 in an uptake transporter inhibition assays.
(§4) Transporter uptake inhibition test was performed on mammal HEK293 cells overexpressing of a respective transporter. Cells were cultured at 37±1° C. and seeded on 96-well tissue culture plate at 1×10^5/well. Substrate was removed prior to experiment and cells were washed twice with 100 μl of respective buffer (HK pH 7.4 for OATP1B1 and HBSS pH 7.4 for NTCP, OAT1, OAT2v1, OATP1A2, and OATP1B3). Uptake studies were performed at 37±1° C. in 50 μl of respective buffer containing radioactively tagged substrate and tested compound or solvent.
(§5) After experiment cells were washed twice with 100 μl of ice-cold respective buffer and lysed with 50 μl of 0.1M NaOH. Transport of radioactively tagged substrate was determined by scintillation counter measurement.

The next data set has as its target T4, OATP1B3 (Homo sapiens, UniProt Q9NPD5).
T4 construct: host or cells: HEK293
T4 sequence (Q9NPD5 1-702): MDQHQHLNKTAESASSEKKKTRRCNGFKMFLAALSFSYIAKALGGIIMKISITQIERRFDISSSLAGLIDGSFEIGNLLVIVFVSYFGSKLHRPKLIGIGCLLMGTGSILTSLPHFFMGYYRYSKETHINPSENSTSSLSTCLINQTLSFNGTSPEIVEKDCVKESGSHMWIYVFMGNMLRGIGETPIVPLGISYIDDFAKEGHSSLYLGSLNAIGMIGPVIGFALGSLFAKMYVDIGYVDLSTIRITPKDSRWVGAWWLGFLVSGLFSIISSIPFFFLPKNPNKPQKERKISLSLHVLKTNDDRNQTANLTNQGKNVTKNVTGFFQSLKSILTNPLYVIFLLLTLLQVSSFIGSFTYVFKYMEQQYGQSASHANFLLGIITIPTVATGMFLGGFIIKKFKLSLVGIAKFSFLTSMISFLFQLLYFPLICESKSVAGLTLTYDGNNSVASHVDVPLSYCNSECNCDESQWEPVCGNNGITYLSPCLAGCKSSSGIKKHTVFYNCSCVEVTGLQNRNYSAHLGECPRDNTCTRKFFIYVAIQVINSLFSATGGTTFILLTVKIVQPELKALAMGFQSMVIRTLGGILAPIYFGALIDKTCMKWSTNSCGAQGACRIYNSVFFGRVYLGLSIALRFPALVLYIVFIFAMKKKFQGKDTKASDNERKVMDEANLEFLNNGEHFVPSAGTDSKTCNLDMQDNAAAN
The data set is described as follows: Uptake transporter inhibition assay, OATP1B3. The data set is classed as cell-based. To be noted: HEK293 cells overexpressing transporter. The method, then:
as §2, §3, §4, §5

Counter-ions that a name gives are not always drawn. A value given as a limit tells only on which side of the number the result lay.

T1 sequence (O15438 whole entry): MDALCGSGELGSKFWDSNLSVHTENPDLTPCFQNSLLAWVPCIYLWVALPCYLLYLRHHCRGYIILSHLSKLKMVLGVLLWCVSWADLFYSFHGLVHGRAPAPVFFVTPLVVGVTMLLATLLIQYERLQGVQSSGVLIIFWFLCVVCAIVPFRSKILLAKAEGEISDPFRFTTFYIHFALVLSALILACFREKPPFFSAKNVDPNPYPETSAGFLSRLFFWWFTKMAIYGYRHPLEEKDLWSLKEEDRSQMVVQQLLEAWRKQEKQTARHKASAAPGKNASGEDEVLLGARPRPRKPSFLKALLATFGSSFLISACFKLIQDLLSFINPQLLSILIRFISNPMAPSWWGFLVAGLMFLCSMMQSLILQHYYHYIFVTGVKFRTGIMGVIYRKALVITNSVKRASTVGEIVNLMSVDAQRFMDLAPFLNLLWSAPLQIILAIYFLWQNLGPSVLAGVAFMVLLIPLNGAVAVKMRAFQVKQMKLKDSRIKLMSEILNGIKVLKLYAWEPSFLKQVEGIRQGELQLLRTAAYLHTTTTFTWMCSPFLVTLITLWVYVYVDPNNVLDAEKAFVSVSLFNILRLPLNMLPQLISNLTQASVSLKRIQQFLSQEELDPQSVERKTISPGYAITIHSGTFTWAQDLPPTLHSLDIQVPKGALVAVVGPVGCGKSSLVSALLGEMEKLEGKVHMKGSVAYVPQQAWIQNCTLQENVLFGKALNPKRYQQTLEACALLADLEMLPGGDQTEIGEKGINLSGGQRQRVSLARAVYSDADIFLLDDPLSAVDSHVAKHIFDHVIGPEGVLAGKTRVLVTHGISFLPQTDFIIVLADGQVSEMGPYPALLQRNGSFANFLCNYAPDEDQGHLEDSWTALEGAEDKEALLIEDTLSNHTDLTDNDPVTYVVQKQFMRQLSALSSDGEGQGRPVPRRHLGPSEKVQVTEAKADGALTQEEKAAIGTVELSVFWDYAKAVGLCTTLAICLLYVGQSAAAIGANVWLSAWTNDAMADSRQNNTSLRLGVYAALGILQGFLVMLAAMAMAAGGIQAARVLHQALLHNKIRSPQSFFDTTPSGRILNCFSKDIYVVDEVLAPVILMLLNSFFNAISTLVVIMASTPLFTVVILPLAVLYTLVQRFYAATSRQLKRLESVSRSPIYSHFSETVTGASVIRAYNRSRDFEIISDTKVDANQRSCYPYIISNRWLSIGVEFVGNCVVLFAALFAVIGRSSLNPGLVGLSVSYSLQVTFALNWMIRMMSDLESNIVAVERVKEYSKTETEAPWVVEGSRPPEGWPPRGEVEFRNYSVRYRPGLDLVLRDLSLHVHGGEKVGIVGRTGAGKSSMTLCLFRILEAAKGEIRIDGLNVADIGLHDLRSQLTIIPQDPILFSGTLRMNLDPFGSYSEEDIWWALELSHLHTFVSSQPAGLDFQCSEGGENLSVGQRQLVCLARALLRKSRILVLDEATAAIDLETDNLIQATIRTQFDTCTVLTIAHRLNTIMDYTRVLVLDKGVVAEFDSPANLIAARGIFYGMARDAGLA

Take `CC#C[C@@H](CC(=O)O)c1ccc(OCC(C)=C(C)C)cc1` [Example S1, (3S)-3-{4-[(2,3-dimethylbut-2-en-1-yl)oxy]phenyl}hex-4-ynoic acid calcium salt]: the IC50 against MRP3 (symbol per footnote) was > 100 µM; against BSEP it was > 100 µM; against OATP1B1, 17.9 µM; against OATP1B3, 42.9 µM.
As to `Cc1cc(OCCCS(C)(=O)=O)cc(C)c1-c1cccc(COc2ccc3c(c2)OC[C@H]3CC(=O)O)c1` [Example R1, 2[(3S)-6-({3-[4-(3-methanesulfonylpropoxy)-2,6-dimethylphenyl]-phenyl}methoxy)-2,3-dihydro-1-benzofuran-3-yl]acetic acid, reference compound], the IC50 came out at 31.8 µM at MRP3 (2 mM glutathione), 30 µM at BSEP, 0.49 µM on OATP1B1 and 3.44 µM against OATP1B3.
